Measurements taken from PMC10654507, “A cleavable chimeric peptide with targeting and killing domains enhances LPS neutralization and antibacterial properties against multi-drug resistant E. coli” (Communications Biology, 2023).
Residues, ends and D or L forms follow the SMILES beside them.

Legend:
mouse red blood cells = assay: Hemolytic activity; assay type: cell-based
Description: Blood was collected from the eyeballs of specific pathogen-free (SPF) ICR female mice (6-week-old) with an anticoagulant tube and centrifuged for 10 min (4 °C, 1500 rpm). After washing twice with 0.9% physiological saline, red blood cells were diluted to 8% suspension and added into the Eppendorf tube (100 μL); 2-fold peptide solutions dissolved in 0.9% physiological saline (100 μL) were then added into the tube, incubated at 37 °C for 1 h, and centrifugated at 4 °C for 5 min. The supernatant was pipetted into a 96-well plate and the UV absorbance was measured at 540 nm using a microplate reader. 0.1% Triton X-100 and physiological saline were used as positive and negative control, respectively. The hemolysis rate is calculated as follows: Hemolysis (%) = [(Abspeptide-Abssaline) / (Abs0.1% Triton X-100- Abssaline)] × 100[13].

LPS [1] = assay: Mouse survival, preventive treatment before lethal LPS challenge; assay type: in vivo; set-up: key to survival of mice, single-animal event: 1 represents a mouse death; 0 represents no death; conditions: for mouse survival at 7 days: 7 μmol/kg i.p. at 0 h, LPS 13.5 mg/kg i.p. at 6 h, five mice/group; for survival of mice, single-animal event: Fig. 7a source data, LPS challenge
Description: A sepsis mouse model established in our laboratory was used to evaluate the prevention effect of peptides. […] The survival rate of mice was recorded for 7 days. The mice injected with saline were used as negative control.

MDR E. coli CVCC195 [2] = assay: Lung injury score (H&E histology), E. coli-challenged mice; assay type: in vivo, mouse; conditions: for lung injury score: 7 μmol/kg i.p. pre-treatment, three mice/group; for Pathological analysis of lung (lung injury score): Fig. 6b source data, peptide + E. coli, mean
Description: Lung injury was analyzed histologically at 12 h or 24 h. a Histopathological images of lung sections after staining with hematoxylin and eosin (H&E). Images are presented at a magnification of 100×. b Pathological analysis of lung. Lung injury involves in inflammation (such as peribronchial, perivascular, intrabronchial, and pulmonary interstitial one), bronchial exudate, and alveolar septal thickening, respectively. The specific degree of lung injury of each mouse is assessed by Score 0 (asymptomatic), Score 1 (mild), Score 2 (moderate), and Score 3 (severe), respectively. c The number of counted infiltrated inflammatory cells within processed lung sections from a. Data represent the mean ± SD of three independent experiments. Different lower-case letters indicate a significant difference between the two groups (p < 0.05).
Lung tissues were taken at 12 h and 24 h, respectively, washed with PBS, and fixed in 4% paraformaldehyde overnight. After dehydration in different concentrations of ethanol (including 75%, 85%, 90%, and 95%, respectively), the tissues were embedded in paraffin, sliced, and stained with hematoxylin. Observation was performed under a light microscope. The mice only injected with E. coli, LPS or PBS was regard as the negative or blank control.

[3] = tested on: p65, p-p65, ERK1/2, p-ERK1/2 and IκBα; assay: Western blotting of NF-κB and MAPK pathway proteins in lung tissues of LPS-challenged mice; assay type: in vivo, mouse; conditions: for IκBα/β-actin ratio / p-ERK1/2/ERK1/2 ratio / p-p65/p65 ratio: Supplementary Fig. 5b-d source data, lung tissues, peptide + LPS, mean; for ERK1/2 phosphorylation: lung tissues of 24 h, western blot
Description: Additionally, the lung tissues of 24 h were homogenized and suspended in […] buffer, and the protein levels of supernatants were quantified using a Bradford protein assay kit. A total of 30 μg proteins were analyzed on a sodium dodecyl sulfate-polyacrylamide gel electrophoresis gel and were immunoblotted onto PVDF membranes, followed by an incubation with the primary antibodies of p65, p-p65, extracellular signal-regulated kinase (ERK)1/2, p-ERK1/2 and IκBα overnight at 4 °C. After washing, the blots were incubated with the peroxidase conjugated goat-rabbit or goat-mouse antibodies. Relative protein expression levels were quantified by a densitometric measurement of chemiluminescence (ECL) reaction band. β-actin was used as the internal reference. […]
pathways in lung tissues.
LPS. a The protein levels of p65, p-p65, ERK1/2, p-ERK1/2, and IκBα in lungs were analyzed by western blotting. b Densitometric analysis of p-ERK1/2/ERK1/2 ratio. c. Densitometric analysis of p-p65/p65 ratio. d Densitometric analysis of IκBα/β-actin ratio. All data were analyzed with one-way ANOVA, and data are means ± SD (n = 3). p-values< 0.05 were considered significant. **, p < 0.01, […]
(1 picture or pasted object on this page, not shown here)

MDR E. coli CVCC195 [4] = assay: Serum cytokines (TNF-α, IL-6, IL-1β, IL-10; ELISA) in E. coli-challenged mice; assay type: in vivo, mouse; set-up: unit not given beside the values; conditions: Fig. 5c-f source data, peptide + E. coli challenged mice, mean
Description: (§1) After E. coli or LPS challenge, the mice were sacrificed at 12 h and 24 h, respectively, and the sera were collected to detect inflammatory cytokines (such as tumor necrosis factor-α (TNF-α), interleukin-6 (IL-6), interleukin-1β (IL-1β), and interleukin-10 (IL-10)) using the enzyme linked immunosorbent assay (ELISA) kits. To evaluate the specific activity of intestinal alkaline phosphatase (IAP), a 2 cm segment of duodenum was rapidly intercepted from the mice and homogenized; the IAP levels in the supernatant were detected by ELISA. In addition, the lungs were collected from the mice infected by E. coli after 12 and 24 h, respectively and were homogenized in sterile PBS for the bacterial counts assay.

LPS [5] = assay: Intestinal alkaline phosphatase (IAP) activity in duodenum, LPS-challenged mice; assay type: in vivo, mouse; set-up: IAP levels in mice: unit not given beside the values; conditions: for IAP levels in mice: Fig. 7f source data, peptide + LPS, mean
Description: as §1

E. coli 0111: B4 LPS = assay: BC (BODIPY-TR-cadaverine) displacement assay, binding to LPS; set-up: species or system Escherichia coli; unit not given here; conditions: Fig. 4a source data, mean
Description: The binding of peptides to LPS was determined according to the method described previously[34],[59]. In brief, E. coli 0111: B4 LPS (40 μg/mL) and BODIPY-TR-cadaverine (BC) (10 μM) were mixed in 50 mM Tris buffer (pH = 7.4) in equal proportions and added to a 96-well black plate (180 μL/well) in the dark. Different concentrations of chimeric peptide R7 and its parental (20 μL) were added into each well and detected by a fluorescence spectrophotometry at room temperature (excitation wavelength 580 nm, emission wavelength 620 nm). The change in relative fluorescence was recorded and the BC displacement rate was calculated. Polymycin B (PMB) was used as the positive control.

[6] = concentration 1 μg/ml (as headed), 37 °C, 1 h, absorbance 540 nm, 0.1% Triton X-100 = 100, mean, n = 3
[7] = concentration 2 μg/ml (as headed), 37 °C, 1 h, absorbance 540 nm, mean, n = 3
[8] = concentration 4 μg/ml (as headed), 37 °C, 1 h, absorbance 540 nm, mean, n = 3
[9] = concentration 8 μg/ml (as headed), 37 °C, 1 h, absorbance 540 nm, mean, n = 3
[10] = concentration 16 μg/ml (as headed), 37 °C, 1 h, absorbance 540 nm, mean, n = 3
[11] = concentration 32 μg/ml (as headed), 37 °C, 1 h, absorbance 540 nm, mean, n = 3
[12] = concentration 64 μg/ml (as headed), 37 °C, 1 h, absorbance 540 nm, mean, n = 3
[13] = concentration 128 μg/ml (as headed), 37 °C, 1 h, absorbance 540 nm, mean, n = 3
[14] = event at day 2, one cell per mouse
[15] = event at day 7, one cell per entry

Row | SMILES | Hemolysis (mouse red blood cells; [6]) | Hemolysis (mouse red blood cells; [7]) | Hemolysis (mouse red blood cells; [8]) | Hemolysis (mouse red blood cells; [9]) | Hemolysis (mouse red blood cells; [10]) | Hemolysis (mouse red blood cells; [11]) | Hemolysis (mouse red blood cells; [12]) | Hemolysis (mouse red blood cells; [13]) | Hemolysis (mouse red blood cells; low concentration (0 ~ 32 μM)) | mouse survival at 7 days (LPS [1]) | survival of mice, single-animal event (LPS [1]; [14]) | survival of mice, single-animal event (LPS [1]; [15]) | lung injury score (MDR E. coli CVCC195 [2]; 12 h after E. coli infection) | lung injury score (MDR E. coli CVCC195 [2]; 24 h after E. coli infection) | Pathological analysis of lung (lung injury score) (MDR E. coli CVCC195 [2]; 12 h) | Pathological analysis of lung (lung injury score) (MDR E. coli CVCC195 [2]; 24 h) | IκBα/β-actin ratio [3] | p-ERK1/2/ERK1/2 ratio [3] | p-p65/p65 ratio [3] | ERK1/2 phosphorylation [3] | also measured
1 | CSCC[C@H](NC(=O)[C@H](CCCNC(=N)N)NC(=O)[C@H](Cc1c[nH]c2ccccc12)NC(=O)[C@H](C)NC(=O)[C@H](Cc1c[nH]c2ccccc12)NC(=O)[C@H](CCCNC(=N)N)NC(=O)[C@H](Cc1c[nH]c2ccccc12)NC(=O)[C@H](C)NC(=O)[C@H](CCCCN)NC(=O)[C@@H](N)Cc1ccccc1)C(=O)N[C@@H](CCCCN)C(=O)N[C@@H](CCCCN)C(=O)N[C@@H](CC(C)C)C(=O)N[C@@H](C)C(=O)N[C@@H](C)C(=O)N1CCC[C@H]1C(=O)N[C@@H](CO)C(=O)O [L7] (H-FKAWRWAWRMKKLAAPS-OH) | -0.1237% | 0.165% | -0.1856% | -0.6393% | 0.04126% | -0.3506% | -0.6805% | -1.031% | no hemolysis | 40% | 1 | 0 | 7.7 points | 5.7 points | 6.667 | 7 | 1.143 | 1.133 | 1.216 | not markedly attenuated | hemolysis against mouse red blood cells (mouse red blood cells; 128 μM): 0%; TNFα (MDR E. coli CVCC195 [4]; 12 h): 75.496; TNFα (MDR E. coli CVCC195 [4]; 24 h): 66.872; IAP levels in mice (LPS [5]; 12 h): 684.97; IAP levels in mice (LPS [5]; 24 h): 544.938; binding affinity to LPS (E. coli 0111: B4 LPS; peptide concentration 0.05 μM): 17.2577; binding affinity to LPS (E. coli 0111: B4 LPS; peptide concentration 0.1 μM): 18.4019; binding affinity to LPS (E. coli 0111: B4 LPS; peptide concentration 0.5 μM): 19.7825; binding affinity to LPS (E. coli 0111: B4 LPS; peptide concentration 1 μM): 22.1031; binding affinity to LPS (E. coli 0111: B4 LPS; peptide concentration 5 μM): 24.1888; binding affinity to LPS (E. coli 0111: B4 LPS; peptide concentration 10 μM): 28.4883; binding affinity to LPS (E. coli 0111: B4 LPS; peptide concentration 50 μM): 44.9086; binding affinity to LPS (E. coli 0111: B4 LPS; peptide concentration 100 μM): 71.3338
2 | CSCC[C@H](NC(=O)[C@H](CCCNC(=N)N)NC(=O)[C@H](Cc1c[nH]c2ccccc12)NC(=O)[C@H](C)NC(=O)[C@H](Cc1c[nH]c2ccccc12)NC(=O)[C@H](CCCNC(=N)N)NC(=O)[C@H](Cc1c[nH]c2ccccc12)NC(=O)[C@H](C)NC(=O)[C@H](CCCCN)NC(=O)[C@H](Cc1ccccc1)NC(=O)[C@H](CCCNC(=N)N)NC(=O)[C@H](CCCNC(=N)N)NC(=O)[C@H](CCCCN)NC(=O)[C@H](CCCNC(=N)N)NC(=O)[C@H](CCCCN)NC(=O)[C@H](Cc1ccccc1)NC(=O)[C@H](Cc1ccccc1)NC(=O)[C@H](CO)NC(=O)[C@H](C)NC(=O)[C@H](CCCNC(=N)N)NC(=O)[C@@H](NC(=O)[C@H](CCCCN)NC(=O)[C@H](Cc1c[nH]c2ccccc12)NC(=O)[C@H](CCCNC(=N)N)NC(=O)CNC(=O)[C@H](CCC(N)=O)NC(=O)[C@@H](NC(=O)[C@@H](N)CCCNC(=N)N)C(C)C)C(C)C)C(=O)N[C@@H](CCCCN)C(=O)N[C@@H](CCCCN)C(=O)N[C@@H](CC(C)C)C(=O)N[C@@H](C)C(=O)N[C@@H](C)C(=O)N1CCC[C@H]1C(=O)N[C@@H](CO)C(=O)O [R7] (H-RVQGRWKVRASFFKRKRRFKAWRWAWRMKKLAAPS-OH) | -0.4331% | -0.2475% | -0.2475% | -0.1031% | 0.495% | 2.846% | 6.991% | 10.9301% | no hemolysis | 100% | 0 | 0 | 4.3 points | 2.0 points | 2.333 | 2 | 1.322 | 1.134 | 0.775 | not markedly attenuated | TNFα (MDR E. coli CVCC195 [4]; 12 h): 51.956; TNFα (MDR E. coli CVCC195 [4]; 24 h): 49.098; effect on IAP activity compared to the LPS group (LPS [5]; 12 h after LPS challenge): significantly up-regulated; effect on IAP activity compared to the LPS group (LPS [5]; 24 h after LPS challenge): no significant changes; IAP levels in mice (LPS [5]; 12 h): 1301.32; IAP levels in mice (LPS [5]; 24 h): 927.606; binding affinity to LPS (E. coli 0111: B4 LPS; peptide concentration 0.05 μM): 20.2273; binding affinity to LPS (E. coli 0111: B4 LPS; peptide concentration 0.1 μM): 21.6184; binding affinity to LPS (E. coli 0111: B4 LPS; peptide concentration 0.5 μM): 51.5852; binding affinity to LPS (E. coli 0111: B4 LPS; peptide concentration 1 μM): 77.8834; binding affinity to LPS (E. coli 0111: B4 LPS; peptide concentration 5 μM): 85.6571; binding affinity to LPS (E. coli 0111: B4 LPS; peptide concentration 10 μM): 94.6127; binding affinity to LPS (E. coli 0111: B4 LPS; peptide concentration 50 μM): 98.4665; binding affinity to LPS (E. coli 0111: B4 LPS; peptide concentration 100 μM): 96.0469
